Assay results: patent publication US10124012B2, “Method for treatment of hyperglycemia and hyperlipidemia” (priority 2016, dated 2018)

What was measured:
Format in all cases: in vivo, C57BL/6J mice
[1] = tested on: high-fat diet-fed C57BL/6J mouse; test: Body weight, tissue weights and food intake in HFD-fed mice; settings: for Absolute tissue weight Visceral fat: sum of EWAT and RWAT
From the text: (§1) The 4-week old male C57BL/6J mice (total amount n=63) were obtained from the National Laboratory Animal Center (Taipei, Taiwan). After acclimatization for one week, all of the mice were randomly assigned into a control (CON) group and a high-fat diet (HFD) group. […] After HFD feeding for 8 weeks, the HFD group was randomly subdivided into six groups (n=9 per group) receiving different treatments and fed on HFD. […] The HF+AnK1, HF+AnK2, and HF+AnK3 groups are collectively termed AnK-treated HFD groups in the following examples. The CON mice were administered vehicle. All treatments were administered via oral gavage once daily. After administration for 4 weeks, all mice were fasted 12 hours, and blood was collected from the retro-orbital sinus under ether anesthesia. At the end of the experiment, the mice were sacrificed via carbon dioxide inhalation. Liver, adipose tissue, and skeletal muscle were collected and immediately stored at −80° C. for target gene analysis.
The metabolic parameters, including body weight, weight gain, and food intake, were performed as the following. Body weight was daily measured at the same time throughout the study. Body weight gain is considered as the weight difference between two consecutive days. The amount of pellet food was weighted, followed by weighting the amount of remaining food after 24 hours. The difference between the two weights is defined as daily food intake.

[2] = tested on: high-fat diet-fed C57BL/6J mouse; test: Hepatic lipids in HFD-fed mice
Method: as §1, with “Animal studies” for “The 4-week old male C57BL/6J mice (total amount n=63)”, “performed and approved under” for “obtained from”, “guidelines of the Institutional” for “National Laboratory”, “Care and Use Committee in Taiwan (12 Mar. 2015). […]” for “Center (Taipei, Taiwan).”, “group. For the following 12 weeks, the CON group (n=9) received a control diet or a low-fat diet (Diet 12450B, Research Diets, Inc., New Brunswick, N.J., USA), while the HFD group (n=54) received a high-fat diet (Diet 12451, Research Diets, New Brunswick, N.J., USA).” for “group.”

membrane GLUT4 = test: Western blotting of skeletal muscular membrane GLUT4 in HFD-fed mice; settings: skeletal muscle, AnK 10, 20, 40, Feno 250, Metf 300 mg/kg/day, as compared with the HF group
From the text: as §1
About 0.1 g of liver tissue, skeletal muscle, or adipose tissue was used for the homogenate samples. Samples were powdered under liquid nitrogen and homogenized for 20 seconds in 500 μL buffer containing 20 mM Tris-HCl (pH 7.4 at 4° C.), 2% SDS, 5 mM EDTA, 5 mM EGTA, 1 mM dithiothreitol (DTT), 100 mM NaF, 2 mM sodium vanadate, 0.5 mM phenylmethylsulfonyl fluoride, 10 μg/mL leupeptin, and 10 μL/mL pepstatin. The total membrane fraction was used for measurement. The protein concentration in supernatant was determined with a BCA protein assay kit (Thermo Scientific, Rockford, Ill., USA). […] The membrane was blocked with 5% slim milk in Tris-buffered saline (TBS)(Amersham BioSciences, Uppsala, Sweden) containing 0.05% Tween-20 (Bio Rad, CA, USA) and incubated overnight at 4° C. with antibodies at 1:200 dilution. […] Immunoreactive bands were detected with ECL reagent kit (GE Healthcare BioSciences, Buckinghamshire, UK). The intensity of Western blot signals was analyzed using AlphaEase FC software (Alpha Innotech Corporation, Randburg, South Africa). […]

[3] = tested on: phospho-Akt (Ser^473)/total-Akt; test: Western blotting of phospho-Akt/total-Akt in skeletal muscle and liver; settings: HFD-induced reduction, AnK 10, 20, 40, Feno 250, Metf 300 mg/kg/day, vs HF group
From the text: as §1
About 0.1 g of liver tissue, skeletal muscle, or adipose tissue was used for the homogenate samples. Samples were powdered under liquid nitrogen and homogenized for 20 seconds in 500 μL buffer containing 20 mM Tris-HCl (pH 7.4 at 4° C.), 2% SDS, 5 mM EDTA, 5 mM EGTA, 1 mM dithiothreitol (DTT), 100 mM NaF, 2 mM sodium vanadate, 0.5 mM phenylmethylsulfonyl fluoride, 10 μg/mL leupeptin, and 10 μL/mL pepstatin. The total membrane fraction was used for measurement. The protein concentration in supernatant was determined with a BCA protein assay kit (Thermo Scientific, Rockford, Ill., USA). […] The membrane was blocked with 5% slim milk in Tris-buffered saline (TBS)(Amersham BioSciences, Uppsala, Sweden) containing 0.05% Tween-20 (Bio Rad, CA, USA) and incubated overnight at 4° C. with antibodies at 1:200 dilution. Subsequently, the membrane was washed three times with TBS containing 0.05% Tween-20 and incubated with secondary antibody anti-rabbit (1:1000)(Jackson ImmunoResearch Laboratories, Inc., PA, USA) for 1 hour. Immunoreactive bands were detected with ECL reagent kit (GE Healthcare BioSciences, Buckinghamshire, UK). The intensity of Western blot signals was analyzed using AlphaEase FC software (Alpha Innotech Corporation, Randburg, South Africa). The structural protein GAPDH in the samples was used as the loading control.

[4] = HF + AnK1: AnK 10 mg/kg/day oral gavage 4 weeks
[5] = HF + AnK2: AnK 20 mg/kg/day oral gavage 4 weeks
[6] = HF + AnK3: AnK 40 mg/kg/day oral gavage 4 weeks
[7] = HF + Metf: metformin 300 mg/kg/day oral gavage 4 weeks

C=C(CC[C@@H](C)[C@H]1CC[C@H]2C3=C(C(=O)C[C@]12C)[C@@]1(C)CC[C@@H](O)[C@](C)(O)[C@@H]1C[C@@H]3O)C(C)C(=O)O (stereo partly drawn) [AnK, 3α,4β,7β-trihydroxy-4α-methylergosta-8,24(28)-dien-11-on-25S-26-oic acid]
Absolute tissue weight BAT [1, 4]: 0.178 ± 0.007 g | Absolute tissue weight EWAT [1, 4]: 0.867 ± 0.065 g | Absolute tissue weight Liver [1, 4]: 0.946 ± 0.030 g | Absolute tissue weight MWAT [1, 4]: 0.349 ± 0.020 g | Absolute tissue weight RWAT [1, 4]: 0.323 ± 0.039 g | Absolute tissue weight Skeletal muscle [1, 4]: 0.395 ± 0.036 g | Absolute tissue weight Spleen [1, 4]: 0.090 ± 0.003 g | Final body weight [1, 4]: 28.30 ± 0.61 g | Food intake [1, 4]: 1.95 ± 0.05 g/day/mouse | Weight gain [1, 4]: 1.39 ± 0.81 g | Absolute tissue weight BAT [1, 5]: 0.172 ± 0.010 g | Absolute tissue weight EWAT [1, 5]: 0.841 ± 0.062 g | Absolute tissue weight Liver [1, 5]: 0.888 ± 0.019 g | Absolute tissue weight MWAT [1, 5]: 0.340 ± 0.013 g | Absolute tissue weight RWAT [1, 5]: 0.339 ± 0.031 g | Absolute tissue weight Skeletal muscle [1, 5]: 0.364 ± 0.022 g | Absolute tissue weight Spleen [1, 5]: 0.085 ± 0.003 g | Final body weight [1, 5]: 27.55 ± 0.72 g | Food intake [1, 5]: 1.92 ± 0.07 g/day/mouse | Weight gain [1, 5]: 0.70 ± 0.86 g | Absolute tissue weight BAT [1, 6]: 0.175 ± 0.008 g | Absolute tissue weight EWAT [1, 6]: 0.809 ± 0.058 g | Absolute tissue weight Liver [1, 6]: 0.883 ± 0.018 g | Absolute tissue weight MWAT [1, 6]: 0.332 ± 0.025 g | Absolute tissue weight RWAT [1, 6]: 0.306 ± 0.040 g | Absolute tissue weight Skeletal muscle [1, 6]: 0.364 ± 0.028 g | Absolute tissue weight Spleen [1, 6]: 0.104 ± 0.007 g | Final body weight [1, 6]: 27.48 ± 0.46 g | Food intake [1, 6]: 1.98 ± 0.04 g/day/mouse | Weight gain [1, 6]: 0.58 ± 0.35 g | Absolute tissue weight Visceral fat [1, 4]: 1.190 ± 0.093 g | Absolute tissue weight Visceral fat [1, 5]: 1.180 ± 0.106 g | Absolute tissue weight Visceral fat [1, 6]: 1.154 ± 0.096 g | Liver lipids total lipid [2, 4]: 73.1 ± 4.7 mg/g | Liver lipids triacylglycerol [2, 4]: 56.3 ± 4.2 µmol/g | Liver lipids total lipid [2, 5]: 66.0 ± 4.8 mg/g | Liver lipids triacylglycerol [2, 5]: 45.7 ± 3.9 µmol/g | Liver lipids total lipid [2, 6]: 64.5 ± 5.2 mg/g | Liver lipids triacylglycerol [2, 6]: 45.2 ± 4.6 µmol/g | increase of membrane GLUT4 levels (membrane GLUT4): 1.52-2.20 fold | expression levels of phosphor-Akt/total-Akt ([3]; liver): significantly reversed | expression levels of phosphor-Akt/total-Akt ([3]; skeletal muscle): significantly reversed

CN(C)C(=N)N=C(N)N [Metf, metformin, reference compound]
Absolute tissue weight BAT [1, 7]: 0.220 ± 0.025 g | Absolute tissue weight EWAT [1, 7]: 0.813 ± 0.064 g | Absolute tissue weight Liver [1, 7]: 0.908 ± 0.031 g | Absolute tissue weight MWAT [1, 7]: 0.270 ± 0.018 g | Absolute tissue weight RWAT [1, 7]: 0.298 ± 0.027 g | Absolute tissue weight Skeletal muscle [1, 7]: 0.380 ± 0.025 g | Absolute tissue weight Spleen [1, 7]: 0.093 ± 0.006 g | Final body weight [1, 7]: 27.86 ± 0.72 g | Food intake [1, 7]: 1.89 ± 0.04 g/day/mouse | Weight gain [1, 7]: 0.92 ± 0.08 g | Absolute tissue weight Visceral fat [1, 7]: 1.111 ± 0.077 g | Liver lipids total lipid [2, 7]: 65.3 ± 4.9 mg/g | Liver lipids triacylglycerol [2, 7]: 45.4 ± 4.2 µmol/g | increase of membrane GLUT4 levels (membrane GLUT4): 1.86 fold | expression levels of phosphor-Akt/total-Akt ([3]; liver): significantly reversed | expression levels of phosphor-Akt/total-Akt ([3]; skeletal muscle): significantly reversed
